Assays:
Experiment in all cases: Bliss excess, mean over the matrix (fraction); higher = more synergy
[1] = tested on: SBC-3 (Small Cell Lung Carcinoma)
How it was run: (§1)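 Cell lines grown in DMEM/F12 or RPMI with 10% FBS were plated in 1536-well plates and held 24 hours at 37°C, 5% CO2 before 72 hours of exposure to two-drug dose matrices, with DMSO typically at 0.2%. CellTiter-Glo 2.0 luminescence gave viability, which was converted to inhibition. Vehicle wells were set to 0 and blank wells to 1. Combination Emax is the second-highest inhibition in the matrix, and Bliss excess is the observed combination effect minus the expected EA + EB − EA·EB, where EA and EB are the single-agent effects.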

[2] = tested on: OCI-M1 (Acute Myeloid Leukemia)
How it was run: as §1

[3] = tested on: CAL-85-1 (Breast Carcinoma)
How it was run: as §1

[4] = tested on: NTERA-2-cl-D1 (Other Solid Carcinomas)
How it was run: as §1

[5] = tested on: SCC90 (Head and Neck Carcinoma)
How it was run: as §1

[6] = tested on: OVKATE (Ovarian Carcinoma)
How it was run: as §1

NCI-H2452 (Mesothelioma) = tested on: NCI-H2452 (Mesothelioma)
How it was run: as §1

SK-MEL-24 (Melanoma) = tested on: SK-MEL-24 (Melanoma)
How it was run: as §1

MG-63 (Osteosarcoma) = tested on: MG-63 (Osteosarcoma)
How it was run: as §1

[7] = tested on: SBC-5 (Small Cell Lung Carcinoma)
How it was run: as §1

[8] = tested on: NCI-H2170 (Squamous Cell Lung Carcinoma)
How it was run: as §1

DK-MG (Glioblastoma) = tested on: DK-MG (Glioblastoma)
How it was run: as §1

[9] = tested on: JURL-MK1 (Chronic Myelogenous Leukemia)
How it was run: as §1

[10] = tested on: NCI-H1048 (Small Cell Lung Carcinoma)
How it was run: as §1

SK-N-DZ (Neuroblastoma) = tested on: SK-N-DZ (Neuroblastoma)
How it was run: as §1

[11] = tested on: ATN-1 (T-Lymphoblastic Leukemia)
How it was run: as §1

[12] = tested on: IGROV-1 (Ovarian Carcinoma)
How it was run: as §1

C32 (Melanoma) = tested on: C32 (Melanoma)
How it was run: as §1

[13] = tested on: TK (B-Cell Non-Hodgkin's Lymphoma)
How it was run: as §1

[14] = tested on: BT-474 (Breast Carcinoma)
How it was run: as §1

| SMILES | Bliss excess [1] | Bliss excess [2] | Bliss excess [3] | Bliss excess [4] | Bliss excess [5] | Bliss excess [6] | Bliss excess (NCI-H2452 (Mesothelioma)) | Bliss excess (SK-MEL-24 (Melanoma)) | Bliss excess (MG-63 (Osteosarcoma)) | Bliss excess [7] | Bliss excess [8] | Bliss excess (DK-MG (Glioblastoma)) | Bliss excess [9] | Bliss excess [10] | Bliss excess (SK-N-DZ (Neuroblastoma)) | Bliss excess [11] | Bliss excess [12] | Bliss excess (C32 (Melanoma)) | Bliss excess [13] | Bliss excess [14] |
| --- | --- | --- | --- | --- | --- | --- | --- | --- | --- | --- | --- | --- | --- | --- | --- | --- | --- | --- | --- | --- |
| Cn1cnc2c(F)c(Nc3ccc(Br)cc3Cl)c(C(=O)NOCCO)cc21 [Selumetinib] + C=CCn1c(=O)c2cnc(Nc3ccc(N4CCN(C)CC4)cc3)nc2n1-c1cccc(C(C)(C)O)n1 [AZD1775] (first compound max 10 µM, partner max 1 µM) | -0.0655 | 0 | -0.063 | 0.0314 | -0.0036 | -0.0524 | -0.0288 | -0.0315 | -0.0327 | -0.022 | -0.0838 | -0.0548 | 0.0067 | -0.0564 | -0.022 | -0.0253 | -0.0444 | -0.0036 | -0.0478 | -0.0466 |
| Cn1cnc2c(F)c(Nc3ccc(Br)cc3Cl)c(C(=O)NOCCO)cc21 [Selumetinib] + CC(C)n1c(=O)n(C)c2cnc3cc(F)c(-c4ccc(OCCCN5CCCCC5)nc4)cc3c21 [AZD1390] (first compound max 10 µM, 7x7, partner max 0.3 µM) | -0.0592 | 0.0164 | -0.0039 | 0.0052 | 0.0124 | -0.0178 | -0.0732 | -0.014 | -0.0037 | -0.0404 | -0.0384 | 0.0063 | -0.0296 | -0.0372 | -0.0207 | -0.0318 | -0.0204 | -0.0244 | -0.0134 | -0.0469 |
| Cn1cnc2c(F)c(Nc3ccc(Br)cc3Cl)c(C(=O)NOCCO)cc21 [Selumetinib] + CCN(CCO)CCCOc1ccc2c(Nc3cc(CC(=O)Nc4cccc(F)c4)[nH]n3)ncnc2c1 [AZD2811] (first compound max 10 µM, 7x7, partner max 1 µM) | -0.0518 | 0.0927 | 0.0353 | 0.0056 | 0.0116 | -0.0349 | -0.0726 | -0.0628 | -0.0494 | -0.0253 | -0.0566 | -0.0736 | 0.0645 | -0.0121 | -0.0764 | -0.0981 | -0.021 | 0.0124 | 0.0002 | -0.0419 |
| Cn1cnc2c(F)c(Nc3ccc(Br)cc3Cl)c(C(=O)NOCCO)cc21 [Selumetinib] + C[C@@H]1COCCN1C2=NC(=NC(=C2)C3(CC3)[S@](=N)(=O)C)C4=C5C=CNC5=NC=C4 [AZD6738] (first compound max 10 µM, 7x7, partner max 10 µM) | -0.081 | 0.0217 | 0.0508 | -0.009 | 0.0126 | -0.0282 | -0.0476 | 0.0125 | 0.0342 | 0.0096 | -0.0464 | 0.059 | 0.0095 | 0.0132 | -0.0083 | -0.024 | 0.0211 | 0.0236 | 0.0005 | -0.0485 |
| CC(=O)Nc1cccc(-n2c(=O)n(C3CC3)c(=O)c3c(Nc4ccc(I)cc4F)n(C)c(=O)c(C)c32)c1 [Trametinib] + Cc1nc(-c2cn3c(n2)-c2ccc(-c4cnn(C(C)(C)C(N)=O)c4)cc2OCC3)n(C(C)C)n1 [Taselisib] (first compound max 1 µM, 7x7, partner max 10 µM) | 0.0858 | 0.0652 | 0.213 | 0.022 | 0.0348 | 0.113 | 0.101 | 0.012 | 0.0237 | 0.192 | 0.029 | 0.102 | -0.0107 | 0.245 | 0.0954 | -0.0503 | -0.0339 | 0.0958 | -0.0052 | 0.0002 |
| CC1(C)CCC(CN2CCN(c3ccc(C(=O)NS(=O)(=O)c4ccc(NCC5CCOCC5)c([N+](=O)[O-])c4)c(Oc4cnc5[nH]ccc5c4)c3)CC2)=C(c2ccc(Cl)cc2)C1 [Venetoclax] + C1CN(CCC1(C(=O)N[C@@H](CCO)C2=CC=C(C=C2)Cl)N)C3=NC=NC4=C3C=CN4 [Capivasertib] (first compound max 1 µM, 7x7, partner max 3 µM) | -0.0457 | -0.0441 | -0.031 | -0.0574 | 0.0282 | -0.0458 | -0.0318 | -0.0695 | -0.0862 | -0.041 | -0.0434 | -0.0193 | -0.0259 | 0.0124 | -0.0211 | 0.0132 | -0.0182 | -0.0483 | -0.0111 | -0.0376 |
| CC1(C)CCC(CN2CCN(c3ccc(C(=O)NS(=O)(=O)c4ccc(NCC5CCOCC5)c([N+](=O)[O-])c4)c(Oc4cnc5[nH]ccc5c4)c3)CC2)=C(c2ccc(Cl)cc2)C1 [Venetoclax] + C=CCn1c(=O)c2cnc(Nc3ccc(N4CCN(C)CC4)cc3)nc2n1-c1cccc(C(C)(C)O)n1 [AZD1775] (first compound max 1 µM, partner max 1 µM) | 0.043 | -0.0505 | -0.0334 | -0.0202 | -0.0466 | -0.0169 | 0.0036 | -0.0473 | -0.0048 | -0.0709 | -0.0548 | -0.0003 | -0.0214 | 0.0212 | 0.0353 | 0.0707 | -0.0952 | 0.0075 | 0.0168 | -0.0668 |
| CC1(C)CCC(CN2CCN(c3ccc(C(=O)NS(=O)(=O)c4ccc(NCC5CCOCC5)c([N+](=O)[O-])c4)c(Oc4cnc5[nH]ccc5c4)c3)CC2)=C(c2ccc(Cl)cc2)C1 [Venetoclax] + CCN(CCO)CCCOc1ccc2c(Nc3cc(CC(=O)Nc4cccc(F)c4)[nH]n3)ncnc2c1 [AZD2811] (first compound max 1 µM, 7x7, partner max 1 µM) | 0.0166 | 0.0061 | -0.032 | 0.0826 | 0.169 | -0.0661 | 0.0268 | -0.053 | -0.0699 | 0.0161 | -0.0185 | -0.0784 | 0.0208 | 0.103 | 0.0269 | 0.0113 | -0.0091 | -0.0014 | 0.0051 | -0.0035 |
| CC1(C)CCC(CN2CCN(c3ccc(C(=O)NS(=O)(=O)c4ccc(NCC5CCOCC5)c([N+](=O)[O-])c4)c(Oc4cnc5[nH]ccc5c4)c3)CC2)=C(c2ccc(Cl)cc2)C1 [Venetoclax] + CN(C)CCCOc1ccc(-c2ccc3ncc4c(c3c2)n(C2CCOCC2)c(=O)n4C)cn1 [AZD0156] (first compound max 1 µM, 7x7, partner max 1 µM) | -0.0369 | -0.0299 | -0.0476 | -0.0372 | 0.0217 | -0.0856 | -0.0149 | -0.0426 | 0.0063 | 0.011 | 0.024 | -0.0222 | -0.0151 | 0.0016 | 0.013 | 0.0437 | -0.0236 | -0.015 | -0.0227 | -0.0072 |
| CC1(C)CCC(CN2CCN(c3ccc(C(=O)NS(=O)(=O)c4ccc(NCC5CCOCC5)c([N+](=O)[O-])c4)c(Oc4cnc5[nH]ccc5c4)c3)CC2)=C(c2ccc(Cl)cc2)C1 [Venetoclax] + COc1cc(Nc2ncc3c(n2)-c2ccc(Cl)cc2C(c2c(F)cccc2OC)=NC3)ccc1C(=O)O [Alisertib] (first compound max 1 µM, 7x7, partner max 10 µM) | 0.0101 | 0.0977 | -0.007 | 0.0304 | 0.135 | -0.0154 | 0.0053 | -0.0132 | -0.0116 | 0.024 | -0.0702 | -0.0012 | -0.0542 | 0.0987 | 0.077 | -0.013 | -0.0588 | 0.0269 | 0.223 | -0.0136 |
| CC1(C)CCC(CN2CCN(c3ccc(C(=O)NS(=O)(=O)c4ccc(NCC5CCOCC5)c([N+](=O)[O-])c4)c(Oc4cnc5[nH]ccc5c4)c3)CC2)=C(c2ccc(Cl)cc2)C1 [Venetoclax] + C[C@@H]1COCCN1C2=NC(=NC(=C2)C3(CC3)[S@](=N)(=O)C)C4=C5C=CNC5=NC=C4 [AZD6738] (first compound max 1 µM, 7x7, partner max 10 µM) | -0.0906 | -0.0106 | -0.0195 | -0.0238 | -0.014 | -0.0291 | -0.0034 | -0.0429 | -0.0758 | -0.0486 | -0.0019 | -0.0914 | 0.0005 | 0.0276 | -0.0396 | -0.0216 | -0.0075 | -0.0229 | 0.0223 | -0.0265 |
| CC1(C)CCC(CN2CCN(c3ccc(C(=O)NS(=O)(=O)c4ccc(NCC5CCOCC5)c([N+](=O)[O-])c4)c(Oc4cnc5[nH]ccc5c4)c3)CC2)=C(c2ccc(Cl)cc2)C1 [Venetoclax] + C[C@@H](Nc1cc(F)cc(F)c1)c1cc(C(=O)N(C)C)cc2c(=O)cc(N3CCOCC3)oc12 [AZD8186] (first compound max 1 µM, 7x7, partner max 3 µM) | -0.034 | -0.0158 | -0.055 | -0.0199 | 0.048 | -0.0334 | 0.0255 | -0.0585 | -0.0636 | -0.022 | -0.0739 | -0.0425 | -0.0201 | 0.018 | 0.0144 | 0.0347 | 0.0084 | -0.0207 | -0.0454 | -0.055 |
| CC1(C)CCC(CN2CCN(c3ccc(C(=O)NS(=O)(=O)c4ccc(NCC5CCOCC5)c([N+](=O)[O-])c4)c(Oc4cnc5[nH]ccc5c4)c3)CC2)=C(c2ccc(Cl)cc2)C1 [Venetoclax] + Cc1cc2ncnn2cc1Nc1ncc2c(n1)n(C1CCOCC1)c(=O)n2C [AZD7648] (first compound max 1 µM, 7x7, partner max 10 µM) | -0.0729 | -0.0153 | -0.0251 | -0.0216 | 0.118 | -0.113 | -0.0388 | -0.0553 | -0.0405 | 0.0086 | -0.0109 | -0.0355 | -0.0068 | 0.0067 | -0.0112 | 0.0196 | -0.0589 | -0.0219 | 0.0006 | -0.0622 |

From the supplement of paper PMC11061612
